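Each compound was tested at five concentrations against cells in 96-well plates for 48 hours. Abbreviation: GI50, concentration required for 50% inhibition of growth.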 Activity calls are given as the source filed them. No stated cut-off is given here; in the data, active = GI50 up to about 1.1 µM and inactive = higher.
Tests used:
Test in all cases: NCI tumour cell line growth inhibition, 48 h
786-0 = test system: 786-0
A549 = test system: A549
BT-549 = test system: BT-549
CAKI-1 = test system: CAKI-1
CCRF-CEM = test system: CCRF-CEM
COLO 205 = test system: COLO 205
DU-145 = test system: DU-145
EKVX = test system: EKVX
HCC 2998 = test system: HCC 2998
HCT-15 = test system: HCT-15
HOP-62 = test system: HOP-62
HOP-92 = test system: HOP-92
HT-29 = test system: HT-29
IGROV-1 = test system: IGROV-1
KM12 = test system: KM12
LOX IMVI = test system: LOX IMVI
M14 = test system: M14
MCF7 = test system: MCF7
MDA-MB-231 = test system: MDA-MB-231
MDA-MB-435 = test system: MDA-MB-435
MDA-N = test system: MDA-N
MOLT-4 = test system: MOLT-4
Malme-3M = test system: Malme-3M
NCI-H23 = test system: NCI-H23
NCI/ADR-RES = test system: NCI/ADR-RES
OVCAR-4 = test system: OVCAR-4
OVCAR-5 = test system: OVCAR-5
OVCAR-8 = test system: OVCAR-8
PC-3 = test system: PC-3
RPMI-8226 = test system: RPMI-8226
SF-539 = test system: SF-539
SK-MEL-28 = test system: SK-MEL-28
SK-MEL-2 = test system: SK-MEL-2
SK-MEL-5 = test system: SK-MEL-5
SK-OV-3 = test system: SK-OV-3
SN12C = test system: SN12C
SNB-75 = test system: SNB-75
SR = test system: SR
SW-620 = test system: SW-620
T47D = test system: T47D
TK-10 = test system: TK-10
U-251 = test system: U-251
UACC-257 = test system: UACC-257
UACC-62 = test system: UACC-62
A498 = test system: A498
ACHN = test system: ACHN
HCT-116 = test system: HCT-116
HL-60 = test system: HL-60
Hs-578T = test system: Hs-578T
K562 = test system: K562
NCI-H226 = test system: NCI-H226
NCI-H460 = test system: NCI-H460
NCI-H522 = test system: NCI-H522
OVCAR-3 = test system: OVCAR-3
RXF 393 = test system: RXF 393
SF-268 = test system: SF-268
SF-295 = test system: SF-295
SNB-19 = test system: SNB-19
UO-31 = test system: UO-31

With `CCOC(=O)CCCOc1cc(-c2ccccc2F)nc2cc3c(cc12)OCO3` as the compound, how does the GI50 (786-0) read?
The GI50 was > 100 µM (inactive).

And the GI50 (A549)?
The GI50 was > 100 µM (inactive).

And the GI50 (BT-549)?
The GI50 was 19.9 µM (inactive).

And the GI50 (CAKI-1)?
The GI50 was > 100 µM (inactive).

And the GI50 (CCRF-CEM)?
Its GI50 is 30.8 µM (inactive).

And the GI50 (COLO 205)?
The GI50 was > 100 µM (inactive).

And the GI50 (DU-145)?
Its GI50 is > 100 µM (inactive).

And the GI50 (EKVX)?
The GI50 was 40.6 µM (inactive).

What about the GI50 (HCC 2998) of the same compound?
Its GI50 is 5.82 µM (inactive).

And the GI50 (HCT-15)?
The GI50 was 3.29 µM.

And the GI50 (HOP-62)?
The GI50 was > 100 µM (inactive).

And the GI50 (HOP-92)?
Its GI50 is > 100 µM (inactive).

What about the GI50 (HT-29) of the same compound?
The GI50 was 43.7 µM (inactive).

What about the GI50 (IGROV-1) of the same compound?
The GI50 was 24.6 µM (inactive).

What about the GI50 (KM12) of the same compound?
Its GI50 is 61.9 µM (inactive).

What about the GI50 (LOX IMVI) of the same compound?
The GI50 was > 100 µM (inactive).

And the GI50 (M14)?
Its GI50 is 53 µM (inactive).

And the GI50 (MCF7)?
The GI50 was > 100 µM (inactive).

What about the GI50 (MDA-MB-231) of the same compound?
Its GI50 is > 100 µM (inactive).

What about the GI50 (MDA-MB-435) of the same compound?
Its GI50 is 53.6 µM (inactive).

What about the GI50 (MDA-N) of the same compound?
The GI50 was 88.7 µM (inactive).

And the GI50 (MOLT-4)?
The GI50 was 27.3 µM (inactive).

And the GI50 (Malme-3M)?
Its GI50 is 74.1 µM (inactive).

What about the GI50 (NCI-H23) of the same compound?
The GI50 was 46.6 µM (inactive).

What about the GI50 (NCI/ADR-RES) of the same compound?
The GI50 was 46.8 µM (inactive).

And the GI50 (OVCAR-4)?
The GI50 was 3.71 µM (inactive).

What about the GI50 (OVCAR-5) of the same compound?
The GI50 was > 100 µM (inactive).

And the GI50 (OVCAR-8)?
The GI50 was > 100 µM (inactive).

And the GI50 (PC-3)?
The GI50 was 29.6 µM (inactive).

And the GI50 (RPMI-8226)?
Its GI50 is 28.4 µM (inactive).

What about the GI50 (SF-539) of the same compound?
Its GI50 is > 100 µM (inactive).

And the GI50 (SK-MEL-28)?
The GI50 was 73.5 µM (inactive).

What about the GI50 (SK-MEL-2) of the same compound?
The GI50 was > 100 µM (inactive).

And the GI50 (SK-MEL-5)?
The GI50 was 57.7 µM (inactive).

And the GI50 (SK-OV-3)?
The GI50 was > 100 µM (inactive).

What about the GI50 (SN12C) of the same compound?
Its GI50 is > 100 µM (inactive).

What about the GI50 (SNB-75) of the same compound?
Its GI50 is 40.9 µM (inactive).

What about the GI50 (SR) of the same compound?
The GI50 was 32 µM (inactive).

What about the GI50 (SW-620) of the same compound?
The GI50 was > 100 µM (inactive).

And the GI50 (T47D)?
The GI50 was 25.5 µM (inactive).

And the GI50 (TK-10)?
The GI50 was > 100 µM (inactive).

And the GI50 (U-251)?
Its GI50 is 95.9 µM (inactive).

What about the GI50 (UACC-257) of the same compound?
The GI50 was 70.3 µM (inactive).

And the GI50 (UACC-62)?
Its GI50 is 84.9 µM (inactive).

What does the source list for `COC(=O)C1Cc2c([nH]c3ccccc23)-c2[nH]c3ccccc3c2CC(NC(C)=O)C(=O)NCC(=O)NCC(=O)N1` (centres undefined)?
GI50 (786-0): > 100 µM (inactive); GI50 (A498): > 100 µM (inactive); GI50 (A549): > 100 µM (inactive); GI50 (ACHN): > 100 µM (inactive); GI50 (BT-549): > 100 µM (inactive); GI50 (CAKI-1): > 100 µM (inactive); GI50 (CCRF-CEM): > 100 µM (inactive); GI50 (COLO 205): > 100 µM (inactive); GI50 (DU-145): > 100 µM (inactive); GI50 (EKVX): > 100 µM (inactive); GI50 (HCT-116): > 100 µM (inactive); GI50 (HCT-15): > 100 µM; GI50 (HL-60): > 100 µM (inactive); GI50 (HOP-62): > 100 µM (inactive); GI50 (HOP-92): > 100 µM (inactive); GI50 (HT-29): > 100 µM (inactive); GI50 (Hs-578T): > 100 µM (inactive); GI50 (IGROV-1): > 100 µM (inactive); GI50 (K562): > 100 µM (inactive); GI50 (KM12): > 100 µM (inactive); GI50 (LOX IMVI): > 100 µM (inactive); GI50 (M14): > 100 µM (inactive); GI50 (MDA-MB-231): > 100 µM (inactive); GI50 (MDA-MB-435): > 100 µM (inactive); GI50 (MDA-N): > 100 µM (inactive); GI50 (MOLT-4): > 100 µM (inactive); GI50 (Malme-3M): > 100 µM (inactive); GI50 (NCI-H226): > 100 µM (inactive); GI50 (NCI-H23): > 100 µM (inactive); GI50 (NCI-H460): > 100 µM (inactive); GI50 (NCI-H522): > 100 µM (inactive); GI50 (NCI/ADR-RES): > 100 µM (inactive); GI50 (OVCAR-3): > 100 µM (inactive); GI50 (OVCAR-5): > 100 µM (inactive); GI50 (OVCAR-8): > 100 µM (inactive); GI50 (PC-3): > 100 µM (inactive); GI50 (RPMI-8226): > 100 µM (inactive); GI50 (RXF 393): > 100 µM (inactive); GI50 (SF-268): > 100 µM (inactive); GI50 (SF-295): > 100 µM (inactive); GI50 (SF-539): > 100 µM (inactive); GI50 (SK-MEL-28): > 100 µM (inactive); GI50 (SK-MEL-2): > 100 µM (inactive); GI50 (SK-MEL-5): > 100 µM (inactive); GI50 (SK-OV-3): > 100 µM (inactive); GI50 (SN12C): > 100 µM (inactive); GI50 (SNB-19): > 100 µM (inactive); GI50 (SNB-75): > 100 µM (inactive); GI50 (SW-620): > 100 µM (inactive); GI50 (T47D): > 100 µM (inactive); GI50 (TK-10): > 100 µM (inactive); GI50 (U-251): > 100 µM (inactive); GI50 (UACC-257): > 100 µM (inactive); GI50 (UACC-62): > 100 µM (inactive); GI50 (UO-31): > 100 µM (inactive)
